Results published in patent publication US20200164025A1, “AN[…] E[…] AND ACE2 BY BRG1-FOXM1 COMPLEX UNDERLIES PA[…] HYPERTROPHY” (INDIANA UNIVERSITY RESEARCH AND TECHNOLOGY CORPORATION, priority 2014, published 2020).

How the values were obtained:
TAC-stressed hearts = test: TAC pressure-overload cardiac hypertrophy in mice treated with thiostrepton; assay type: in vivo
Protocol: (§1) FoxM1 is a transcription factor that regulates the expression of genes associated with pathological hypertrophy. […] However, FoxM1 mRNA increased by 8.4-fold in TAC-stressed hearts (FIG. 6A), and the protein was present in the nuclei of both myocytes and endothelial cells of stressed hearts (FIGS. 6B and 6C). Because of the stress-induced endothelial expression of FoxM1, it was evaluated if FoxM1 cooperated with Brg1 to regulate Ace and Ace2 expression. The necessity of FoxM1 activation for cardiac hypertrophy by using FoxM1 inhibitor thiostrepton to inhibit FoxM1 in TAC-stressed hearts was tested. Within 4 weeks after TAC, the control mice injected with DMSO developed severe cardiac hypertrophy with increased ventricle-body weight ratio, interstitial fibrosis, and cardiac dysfunction with reduced left ventricular fractional shortening (FS) (FIGS. 6D, 6E, and 6G). […] Collectively, these findings indicate that FoxM1 activation by stress is necessary for cardiac myopathy and for stress-induced changes of Ace and Ace2.

Ace and Ace2 promoter = test: Luciferase reporter assays of Ace and Ace2 proximal promoters in mouse cardiac endothelial cells; assay type: cell-based; conditions: MCEC cells
Protocol: The transcriptional activity of Brg1 on the Ace and Ace2 promoters was also tested. 3.1 kb of Ace upstream promoter (−2983 bp to +174 bp) and 7.8 Kb of Ace2 upstream promoter (−7063 bp to +786 bp) were cloned into the episomal reporter pREP4 that undergoes chromatinization in mammalian cells. The reporter constructs and Brg1-expressing plasmid were transfected into mouse cardiac endothelial cells. In these cells, Brg1 caused a 1.7-fold increase in Ace promoter activity and 59% reduction in Ace2 promoter activity (FIG. 5P). Combined with the ChIP results, these reporter studies indicate that Brg1 activates Ace promoter and represses Ace2 promoter, providing a mechanism for the antithetical changes of Ace and Ace2 in stressed hearts.
Inhibition of FoxM1 by thiostrepton eliminated the ability of Brg to activate Ace and repress Ace2 promoter (FIGS. 10F and 10G).

Ace and Ace2 = test: Western blot analysis of Ace and Ace2 in heart ventricles of thiostrepton treated mice after TAC; assay type: in vivo; conditions: 2 weeks after TAC
Protocol: as §1

SMILES: C=C(NC(=O)C(=C)NC(=O)c1csc(C2=N[C@@H]3c4csc(n4)[C@H]4NC(=O)c5csc(n5)[C@H]([C@](C)(O)[C@@H](C)O)NC(=O)[C@H]5CSC(=N5)/C(=C/C)NC(=O)[C@H]([C@@H](C)O)NC(=O)c5csc(n5)[C@]3(CC2)NC(=O)[C@H](C)NC(=O)C(=C)NC(=O)[C@H](C)NC(=O)[C@H]([C@@H](C)CC)N[C@@H]2C=Cc3c([C@H](C)O)cc(nc3[C@H]2O)C(=O)O[C@@H]4C)n1)C(N)=O [thiostrepton]
- improvement of left ventricular fractional shortening (FS) (TAC-stressed hearts; 4 weeks after TAC, echocardiography, vs DMSO control): 28%
- reduction of hypertrophy (ventricle-body weight ratio) (TAC-stressed hearts; 4 weeks after TAC, vs DMSO control): ~50%
- cardiac dysfunction (TAC-stressed hearts; within 4 weeks after TAC): lesser degree of cardiac dysfunction
- interstitial fibrosis (TAC-stressed hearts; within 4 weeks after TAC, trichrome staining): mild interstitial fibrosis
- cardiac hypertrophy (TAC-stressed hearts; within 4 weeks after TAC, vs DMSO control): mild cardiac hypertrophy
- ability of Brg to activate Ace and repress Ace2 promoter (Ace and Ace2 promoter): eliminated
- TAC-induced changes of Ace and Ace2 (Ace and Ace2; Western blot of heart ventricles): abolished
- reduction of Ace/Ace2 ratio in stressed hearts (Ace and Ace2; Western blot quantitation): 6.53 fold
